Source: doi:10.1101/2025.04.13.648610v1, “Catalytic Mechanism and Differential Alarmone Regulation of a Conserved Stringent Nucleosidase” (biorxiv, 2025)
Substitutions are numbered along the chain they refer to.

Legend:
Type in all cases: binding
PpnN (previously YgdH) [1] = target: T1, PpnN (previously YgdH) (Escherichia coli, UniProt P0ADR8); assay: X-ray crystal structure […] Å
T1 construct: full length, N-terminal His6 tag, plasmid pCA24N-ppnN, expressed in E. coli BL21(DE3) ppnN::kan; homotetramer; domains PAG1 1-150, catalytic 151-329, PAG2 330-454
T1 sequence (P0ADR8 1-454): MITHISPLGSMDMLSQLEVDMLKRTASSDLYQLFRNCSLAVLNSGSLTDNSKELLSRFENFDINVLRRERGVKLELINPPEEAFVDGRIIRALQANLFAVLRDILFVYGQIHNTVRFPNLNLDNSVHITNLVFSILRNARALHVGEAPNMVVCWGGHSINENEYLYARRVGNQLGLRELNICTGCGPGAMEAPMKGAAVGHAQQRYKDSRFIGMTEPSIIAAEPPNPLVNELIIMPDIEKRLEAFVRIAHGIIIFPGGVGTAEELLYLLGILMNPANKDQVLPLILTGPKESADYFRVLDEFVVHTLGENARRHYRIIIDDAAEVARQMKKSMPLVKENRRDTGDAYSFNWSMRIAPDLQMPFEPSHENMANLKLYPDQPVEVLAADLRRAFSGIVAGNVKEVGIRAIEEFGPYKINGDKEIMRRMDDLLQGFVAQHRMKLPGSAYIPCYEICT

PpnN (previously YgdH) [2] = target: T1, PpnN (previously YgdH); assay: X-ray crystal structure
PpnN (previously YgdH) [3] = target: T2, PpnN (previously YgdH) (Escherichia coli, UniProt P0ADR8, E264A); assay: X-ray crystal structure […] Å
T2 construct: full length, N-terminal His6 tag, plasmid pCA24N-ppnN, expressed in E. coli BL21(DE3) ppnN::kan; homotetramer; domains PAG1 1-150, catalytic 151-329, PAG2 330-454
T2 sequence (P0ADR8 1-454 E264A): T1 sequence (P0ADR8 1-454) with E264A

In the case of `Nc1nc2c([C@@H]3O[C@H](COP(=O)(O)O)[C@@H](O)[C@H]3O)c[nH]c2c(=O)[nH]1` [9-deaza-GMP], the “X-ray crystal structure 3.4 Å” value (PpnN (previously YgdH) [1]; second dimer interface (two sites per tetramer), not the active site, with ppGpp) is reported as “an elongated electron density was found into which 9dG could be modelled”.

With `Nc1nc2[nH]cnc2c(=O)[nH]1` [guanine] the X-ray crystal structure (PpnN (previously YgdH) [2]; active sites of the three open monomers, carried over, GMP not added, modelled into density) was “guanine into the smaller densities”.

With `Nc1nc2c(ncn2[C@@H]2O[C@H](COP(=O)(O)OP(=O)(O)O)[C@@H](OP(=O)(O)OP(=O)(O)O)[C@H]2O)c(=O)[nH]1` [ppGpp] the “X-ray crystal structure 3.4 Å” value (PpnN (previously YgdH) [1]; allosteric alarmone site at dimer interface, four of four sites, with 9-deaza-GMP) was “All four canonical alarmone binding sites are occupied by ppGpp”.

For `Nc1nc2c(ncn2[C@@H]2O[C@H](COP(=O)(O)OP(=O)(O)OP(=O)(O)O)[C@@H](OP(=O)(O)OP(=O)(O)O)[C@H]2O)c(=O)[nH]1` [pppGpp], the “X-ray crystal structure 3.5 Å” value (PpnN (previously YgdH) [3]; allosteric alarmone site at dimer interface, four of four sites, co-crystallised with GMP) was “all four alarmone sites are occupied by pppGpp” and the X-ray crystal structure (PpnN (previously YgdH) [2]; allosteric alarmone site at dimer interface, three of four sites) was “pppGpp was bound to three out of four PpnN molecules”.

In the case of `O=P(O)(O)OC[C@H]1OC(O)[C@H](O)[C@@H]1O` (stereo partly shown) [ribose 5-phosphate], the “X-ray crystal structure 3.5 Å” value (PpnN (previously YgdH) [3]; active site, four of four, from GMP added to the crystallisation) is reported as “likely corresponding to the product, R5P” and the X-ray crystal structure (PpnN (previously YgdH) [2]; active site of the partially open monomer, carried over, GMP not added, modelled into density) is reported as “ribose-5-phosphate (R5P) into the bilobed density”.
